Measured values reported in patent US20260131324A1, “A CONTAINER FOR IN VITRO DRUG TESTING” (National University of Singapore, priority 2022, published 2026).

Key:
[1] = Diffusion through hydrogel container (version 2.0) in USP apparatus IV, PBS medium; type: physicochemical; settings: at 8.25 h; caffeine stock solution 4 mg/mL, 1 mL; 100 mL PBS; 34 C
Description: The compendial flow-through cell 504 of the USP apparatus IV 502 is an enclosed system with a heating mantle that allows a controlled medium flow from the bottom to the top of the cell 504. The ring 114 was mounted onto a cylindrical mould and the gel composition was filled into the mould. A punch was used to create interior pockets of similar size. The drug formulation 106 was then injected into the interior pocket of the receptacle 102, and the ring 114 was sealed with a rubber plug 116. The USP apparatus IV 502, as well as the various flow-through cells 504, have been described by various pharmacopoeias and related literature. For this diffusion experiment, a SOTAX CP7-35 Piston Pump 506, alone with a fraction collector 508 and the SOTAX CE7 dissolution system, was used. Media 510 was filled into the reservoir 512 with magnetic stirrers running at 150 rpm. The dissolution apparatus was operated in a closed-loop configuration with a constant flow of 8±0.4 mL/min for all experiments. […] Caffeine was quantified with a ultraviolet-visible (UV/Vis) spectrometer. Subsequently, the cumulative diffusion of caffeine was calculated by comparing the diffused amount with the initially added drug concentration. […] In the next step, new containers 100 were evaluated with Actrapid® and […]®. […]

[2] = Proof-of-concept model: diffusion through agarose hydrogel container (version 1.0) in modified flow-through cell; type: physicochemical; settings: plateau at about 7 h, PBS with Tween 80
Description: FIG. 4A illustrates a hydrogel container 402 (left) and a modified flow-through cell 404 (right) used as a proof-of-concept model for the diffusion experiment shown in the first flow chart 300A of FIG. 3. The proof-of-concept model was designed to affirm the discriminative power of an agarose hydrogel under continuous media flow. Serving as a physicochemical barrier between drug and media, it is supposed to generate data ascertaining differences in diffusion behaviour and gel interaction of closely related drug formulations. For this, Actrapid® (regular human insulin, hexamer) and Apidra® (insulin glulisine) were chosen as model peptide formulations for the initial setup. m-Cresol, present in both formulations, was quantified as well, serving as an internal standard.
A cylindrical gel that forms both the physicochemical barrier and pocket was prepared with the help of custom-made plastic receptacles. The gel consists of 2% (w/w) agarose dissolved in PBS. […] After cooling at room temperature, the gel is formed and ready to use. […]
FIG. 4B illustrates an assay setup for the proof-of-concept model of FIG. 4A for in vitro drug testing. […] Quantification of insulin and m-cresol in the medium was then carried out by HPLC. Subsequently, the cumulative diffusion of the model drugs was calculated by comparing the diffused amount with the initially added drug concentration. […]

Row | Compound | cumulative diffusion of caffeine [1] | cumulative diffusion of m-cresol, maximum ([2]; m-cresol inside Apidra) [%] | cumulative diffusion of m-cresol, plateau ([2]; m-cresol inside the Actrapid formulation) [%]
1 | Cn1c(=O)c2c(ncn2C)n(C)c1=O [caffeine] | around 101±3% | – | –
2 | Cc1cccc(O)c1 [m-cresol, m-Cresol] | – | 88±0.2 | 84±1.0
